Experiments:
[1] = tested on: carrageenan-induced inflammation; assay: mouse carrageenan model (carrageenan-soaked polyethylene sponge implanted under the dorsal skin); format: in vivo
Source text: The contribution of endogenous PEA to inflammatory processes remains largely undefined. […] The inventors have previously shown that the proinflammatory phorbol ester, 12-O-tetradecanoylphorbol-13-acetate (TPA), decreases dermal PEA levels following skin inflammation. These findings raised the possibility that reduced PEA levels during inflammation may allow for the progression of the inflammatory process. To further explore this idea, the inventors evaluated the effects of carrageenan-induced inflammation on PEA levels in the mouse. Polyethylene sponges injected with vehicle (10% DMSO in saline) or carrageenan (1%) were surgically implanted under the dorsal skin of mice. After 3 days, the mice were sacrificed and the sponges were removed and analyzed for inflammatory cell infiltration and cellular PEA content. In carrageenan-treated animals the number of infiltrating cells (primarily neutrophils) increased by approximately 3-fold as can be taken from FIG. 2. Here, surgical implantation of vehicle (v) or carrageenan (c) soaked sponges under the dorsal skin of Swiss mice for 3 days (A) increased the number of infiltrating neutrophils and (B) decreased the levels of endogenous cellular PEA. (C) Time course of the effects of vehicle (open symbols) or carrageen (closed symbols) on PEA levels **P<0.01 or ***P<0.001 vs. V, t-test or ANOVA, followed by Dunnett's post-hoc as appropriate (n=6).
As a first step in determining the role of endogenous PEA in inflammation, the inventors examined the effects of local application of PEA on inflammatory responses. Polyethylene sponges injected with vehicle or carrageenan (1%) and either vehicle (10% DMSO in saline) or various doses of PEA (0.1-50 μg) were surgically implanted under the dorsal skin of mice. After 3 days, the mice were killed and the sponges were removed and analyzed for cell infiltration. […] Here panels (A-B) depict the effect of vehicle (open bars), carrageenan (filled bars) or PEA (0.1-50 μg) in Swiss mice, black bars; PEA (50 μg in PPAR-α−/− mice), scored as the number of infiltrating inflammatory cells into a polyethylene sponge (size) injected with vehicle, carrageenan (1%) or PEA, implanted under the dorsal skin of (A) Swiss mice or (B) wildtype C57BL6 mice (+/+) or PPAR-α/− mice for 3 days. **P<0.01 or ***P<0.001 vs. V, ## P<0.01 vs. carrageenan control. ANOVA, followed by Tukey's or Dunnett's post-hoc as appropriate (n=6). Thus, it should be appreciated that peripheral inflammation is associated with decreased PEA synthesis in infiltrating cells, and that restoring PEA levels by exogenous PEA administration reduces inflammatory responses.
Polyethylene sponges (1 cm^3) were injected with either vehicle (100 μl of water:DMSO (9:1), V, open bars), carrageenan (1%, filled bars), URB597 (30 μg), and URB783 (30 μg) as indicated. **P<0.01 or ***P<0.001 vs. V, ## P<0.01 vs. carrageenan control. ANOVA, followed by Tukey's or Dunnett's post-hoc as appropriate (n=5-7).

[2] = tested on: spinal cord injury; assay: spinal cord injury (SCI) model, extradural clip compression; format: in vivo, mouse; settings: spinal cord tissue 24 hours after SCI, local administration after SCI
Description: In the spinal cord injury (SCI) model, extradural compression of a section of the spinal cord exposed via a four-level T5-T8 aminectomy, caused a substantial increase in iNOS expression in the inflammatory cells as well as in nuclei of […] in the white and gray matter of the spinal cord tissues collected from mice 24 hours after SCI. No iNOS staining was detected in the spinal cord obtained from sham mice. […] A typical experimental protocol is described below.
Mice were randomized into 4 groups (n=40 animals/group). Sham animals were subjected to the surgical procedure except that the aneurysm clip was not applied and treated locally at the spinal cord T5-T8 level with vehicle (saline) or 3 (30 μg/mouse) 1 h and 6 h after surgical procedure. […]
Immunohistochemical localization of PAR, nitrotyrosine, FAS-ligand, Bax, Bcl-2 and iNOS. Twenty-four hours after SCI, nitrotyrosine, a specific marker of nitrosative stress, was measured by immunohistochemical analysis in the spinal cord sections to determine the localization of “peroxynitrite formation” and/or other nitrogen derivatives produced during SCI. […] Specific labeling was detected with a biotin-conjugated goat anti-rabbit IgG and avidin-biotin peroxidase complex ([…]). […]

[3] = biological target: recombinant NAAA (Rattus norvegicus (Rat), UniProt Q5KTC7); assay: NAAA assay; format: biochemical; settings: read-out: IC50 of NAAA inhibition
Description: Recombinant NAAA or native rat lung NAAA was incubated at 37° C. for 30 min in 0.2 ml of sodium hydrogen phosphate buffer (50 mM, pH 5.0) containing 0.1% Triton X-100, 3 mM dithiothreitol (DTT) and […] heptadecenoylethanolamide as substrate. The reaction was terminated by the addition of 0.2 ml cold methanol containing […] of heptadecanoic acid (HDA, NuChek Prep, Elysian, Minn.). Samples were analyzed by LC/MS (liquid chromatography/mass spectrometry). Heptadecanoic acid was eluted on an XDB Eclipse C18 column isocratically at 2.2 ml/min for 1 min with a solvent mixture of 95% methanol and 5% water, both containing 0.25% acetic acid and 5 mM ammonium acetate. The column temperature was 50° C. ESI was in the negative mode, capillary voltage was 4 kV, and fragmentor voltage was 100 V. N2 was used as drying gas at a flow rate of 13 liters/min and a temperature of 350° C. Nebulizer pressure was set at 60 psi. [M-H]-was monitored in SIM mode using heptadecanoic acid as internal standard. Calibration curves were generated using commercial heptadecenoic acid (Nu-Chek Prep, m/z=267).

[4] = 30 μg in sponge, 3 days, Swiss mice

recombinant NAAA, sequence (Q5KTC7 34-362): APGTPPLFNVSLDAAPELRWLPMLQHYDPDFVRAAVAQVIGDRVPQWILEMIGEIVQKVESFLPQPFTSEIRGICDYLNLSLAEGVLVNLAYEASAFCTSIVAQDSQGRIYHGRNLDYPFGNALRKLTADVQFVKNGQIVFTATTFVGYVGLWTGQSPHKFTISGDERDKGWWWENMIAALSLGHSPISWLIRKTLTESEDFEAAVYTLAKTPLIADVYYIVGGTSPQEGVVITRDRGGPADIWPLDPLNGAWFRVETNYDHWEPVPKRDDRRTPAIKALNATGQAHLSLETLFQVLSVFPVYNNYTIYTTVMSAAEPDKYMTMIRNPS

Q: With CCCCCCCCCCCCCCCC(=O)NCCO [PEA, N-palmitoylethanolamine, reference compound] as the molecule, how does the “number of infiltrating cells and edema in PPAR-α-null animals” value ([1]; PEA 50 μg, PPAR-α-null mice) read?
A: had no effect

Q: And the “number of infiltrating cells” value ([1]; PEA 0.1-50 μg in sponge, 3 days, wild-type mice)?
A: dose-dependently reduced

Q: And the edema ([1]; PEA in sponge, wild-type mice, data not shown)?
A: dose-dependently reduced

Q: With O=C(CCc1ccccc1)N[C@H]1COC1=O [URB783, (S)—N-(2-oxooxetan-3-yl)-3-phenylpropionamide] as the molecule, how does the “expression of iNOS” value [2] read?
A: significant reduction

Q: And the “other markers of inflammation and cell apoptosis (PAR, nitrotyrosine, Fas-ligand, Bax, Bcl-2, TUNEL)” value [2]?
A: significant reduction

Q: What about the IC50 [3] of the same molecule?
A: 420 ± 20 nM

Q: What about the “endogenous PEA levels” value [1, 4] of the same molecule?
A: restored PEA to basal levels

Q: What about the “number of infiltrating cells” value [1, 4] of the same molecule?
A: significantly reduced

Q: And the “anti-inflammatory effects in PPAR-α null mice” value ([1]; PPAR-α null mice)?
A: absent

Q: What about the exudates volume ([1]; in sponge, data not shown) of the same molecule?
A: significantly reduced

Q: How did the IC50 [3] turn out when O=C(N[C@H]1COC1=O)c1ccc(-c2ccccc2)cc1 [URB894, (S)—N-(2-oxooxetan-3-yl)biphenyl-4-carboxamide] was run?
A: 115 ± 13 nM

Q: With NC(=O)c1cccc(-c2cccc(OC(=O)NC3CCCCC3)c2)c1 [URB597, reference compound] as the molecule, how does the anti-inflammatory effect ([1]; 30 μg in sponge, 3 days) read?
A: no anti-inflammatory effect

— patent US9321743B2, “Compositions and methods of inhibiting N-acylethanolamine-hydrolyzing acid amidase” (The Regents of the University of California, priority 2007, dated 2016)
